Experimental data reported in PMC4619619, “Diversity of Active States in TMT Opsins” (PLoS ONE, 2015).

Assays:
[1] = biological target: T1, medaka TMT1A opsin (C-terminally truncated) (Oryzias latipes, UniProt R9R6D2); test: UV-visible spectroscopy; HPLC of chromophore; assay type: binding; details: covalent (Schiff base); formed in situ by orange light (>540 nm) from the all-trans state; 0 °C
T1 construct: gene tmtops1a; C-terminal 63 residues deleted; C-terminal rho1D4 tag (ETSQVAPA) kept; HEK293T, pMT4; purified in dodecyl maltoside, also membranes; cDNA cloned from medaka brain
T1 sequence (R9R6D2 1-342): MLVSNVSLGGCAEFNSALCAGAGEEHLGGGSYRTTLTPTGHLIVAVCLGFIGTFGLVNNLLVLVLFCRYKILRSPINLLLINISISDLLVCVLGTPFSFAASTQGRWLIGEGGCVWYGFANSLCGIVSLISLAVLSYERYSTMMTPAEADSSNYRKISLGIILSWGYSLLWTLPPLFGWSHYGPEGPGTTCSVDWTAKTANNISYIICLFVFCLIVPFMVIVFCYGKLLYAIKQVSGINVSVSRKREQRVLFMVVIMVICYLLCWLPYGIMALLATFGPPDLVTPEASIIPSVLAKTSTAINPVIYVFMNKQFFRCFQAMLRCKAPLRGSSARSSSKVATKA

medaka TMT2 opsin [2] = biological target: T2, medaka TMT2 opsin (Oryzias latipes, UniProt R9R6C6); test: UV-visible spectroscopy; HPLC of chromophore; assay type: binding; details: covalent (Schiff base); reconstituted pigment in the dark; 0 °C, pH 6.5, 0.02% dodecyl maltoside
T2 construct: gene tmtops2; full length; C-terminal rho1D4 tag (ETSQVAPA) kept; HEK293T, pMT4; partially purified in dodecyl maltoside, also membranes; cDNA cloned from medaka brain
T2 sequence (R9R6C6 1-355): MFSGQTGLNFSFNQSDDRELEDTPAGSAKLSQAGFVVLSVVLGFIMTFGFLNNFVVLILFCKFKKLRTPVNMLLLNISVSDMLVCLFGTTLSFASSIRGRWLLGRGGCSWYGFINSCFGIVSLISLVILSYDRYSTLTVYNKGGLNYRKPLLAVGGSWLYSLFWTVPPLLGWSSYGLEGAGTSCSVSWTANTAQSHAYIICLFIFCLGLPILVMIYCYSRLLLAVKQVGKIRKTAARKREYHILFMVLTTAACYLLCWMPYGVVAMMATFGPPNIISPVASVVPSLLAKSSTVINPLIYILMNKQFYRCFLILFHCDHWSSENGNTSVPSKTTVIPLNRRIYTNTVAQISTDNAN

full-length TMT1A opsin = biological target: T3, full-length TMT1A opsin (Oryzias latipes, UniProt R9R6D2); test: UV-visible spectroscopy; assay type: binding; details: covalent (Schiff base); reconstituted pigment
T3 construct: gene tmtops1a; full length; C-terminal rho1D4 tag (ETSQVAPA) kept; HEK293T, pMT4; purified
T3 sequence (R9R6D2 1-405): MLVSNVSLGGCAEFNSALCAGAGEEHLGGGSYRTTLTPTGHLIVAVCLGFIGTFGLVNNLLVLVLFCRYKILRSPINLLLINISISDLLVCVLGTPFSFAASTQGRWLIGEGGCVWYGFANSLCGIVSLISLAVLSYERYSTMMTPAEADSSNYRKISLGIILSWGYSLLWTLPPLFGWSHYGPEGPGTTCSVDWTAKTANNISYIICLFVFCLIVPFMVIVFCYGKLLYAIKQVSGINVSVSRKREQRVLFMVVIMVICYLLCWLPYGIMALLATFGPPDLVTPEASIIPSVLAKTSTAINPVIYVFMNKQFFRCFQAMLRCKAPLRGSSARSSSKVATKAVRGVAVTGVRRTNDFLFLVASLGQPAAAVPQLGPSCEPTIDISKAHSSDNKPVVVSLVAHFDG

[3] = biological target: T4, medaka TMT1A opsin (C-terminally truncated) (Oryzias latipes, UniProt R9R6D2, T190S); test: UV-visible spectroscopy before and after irradiation; assay type: binding; details: covalent (Schiff base); 0 °C; bovine rhodopsin numbering; truncation of mutant not stated
T4 construct: gene tmtops1a; C-terminal 63 residues deleted; C-terminal rho1D4 tag (ETSQVAPA) kept; HEK293T, pMT4; purified in dodecyl maltoside, also membranes; cDNA cloned from medaka brain

[4] = biological target: T1, medaka TMT1A opsin (C-terminally truncated); test: UV-visible spectroscopy; HPLC of chromophore; GTPγS exchange with Gi and Go; assay type: biochemical; details: covalent (protonated Schiff base); agonist; formed in situ by blue light (460 nm); 0 °C
medaka TMT2 opsin [5] = biological target: T2, medaka TMT2 opsin; test: UV-visible spectroscopy; acid denaturation; HPLC; GTPγS exchange with Gi and Go; assay type: biochemical; details: covalent (unprotonated Schiff base); agonist; formed in situ by blue light (460 nm); 0 °C

T4 sequence (R9R6D2 entry or part of it T190S): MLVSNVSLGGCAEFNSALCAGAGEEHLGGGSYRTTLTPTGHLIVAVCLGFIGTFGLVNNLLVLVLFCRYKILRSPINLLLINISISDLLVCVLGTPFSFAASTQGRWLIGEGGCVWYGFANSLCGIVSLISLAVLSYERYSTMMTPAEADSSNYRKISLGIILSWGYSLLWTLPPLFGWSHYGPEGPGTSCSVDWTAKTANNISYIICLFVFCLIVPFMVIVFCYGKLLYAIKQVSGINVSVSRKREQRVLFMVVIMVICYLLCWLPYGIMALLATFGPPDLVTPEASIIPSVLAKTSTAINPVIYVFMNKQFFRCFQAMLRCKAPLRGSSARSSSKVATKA

Structure (SMILES): CC1=C(/C=C/C(C)=C\C=C\C(C)=C\C=O)C(C)(C)CCC1 [9-cis-retinal]
- UV-visible spectroscopy; HPLC of chromophore [1]: showed the formation of products having 9-cis and 7-cis forms (Fig 2E)

Structure (SMILES): CC1=C(\C=C/C(C)=C/C=C/C(C)=C/C=O)C(C)(C)CCC1 [7-cis-retinal]
- UV-visible spectroscopy; HPLC of chromophore [1]: showed the formation of products having 9-cis and 7-cis forms (Fig 2E)

Structure (SMILES): CC1=C(/C=C/C(C)=C/C=C\C(C)=C\C=O)C(C)(C)CCC1 [11-cis-retinal]
- UV-visible spectroscopy; HPLC of chromophore (medaka TMT2 opsin [2]): partially purified pigment of TMT2 opsin after reconstitution with 11-cis-retinal
- UV-visible spectroscopy (full-length TMT1A opsin): Full-length pigment was formed after reconstitution with 11-cis-retinal
- UV-visible spectroscopy before and after irradiation [3]: We then constructed a single mutant (T186S) of TMT1A opsin

Structure (SMILES): CC1=C(/C=C/C(C)=C/C=C/C(C)=C/C=O)C(C)(C)CCC1 [all-trans-retinal]
- UV-visible spectroscopy; HPLC of chromophore; GTPγS exchange with Gi and Go [4]: indicating that the all-trans product is a G protein-activating state
- UV-visible spectroscopy; acid denaturation; HPLC; GTPγS exchange with Gi and Go (medaka TMT2 opsin [5]): indicating that the all-trans product was the G protein-activating state of TMT2 opsin
